Experimental data reported in patent publication US7622269B2, “Methods of screening tyramine- and octopamine-expressing cells for compounds and compositions having potential insect control activity” (Tyratech, Inc., priority 2004, dated 2009).
Several values for one entry are separate records, joined by “and”; a condition that tells them apart may be missing. Equal entries are not always repeated.

What was measured:
[1] = test system: Drosophila melanogaster wild type strain; test: Topical toxicity bioassay, wild type fruit fly; type: in vivo; conditions: for Wild/type LD50 values / LD50, D. melanogaster: topical application; for Wild/type LD50 values: mortality 24 hours after treatment; for % Mortality at LD50 of wild/type Drosophila melanogaster strain, Wild/type: topical, 24 hour; for LD50, D. melanogaster: 24 hours
Pa oa1 [2] = molecular target: T1, Pa oa1 (Periplaneta americana, UniProt Q7YWB7); test: Saturation binding of 3H-yohimbine to membranes of COS-7 cells expressing Pa oa1
T1 sequence (Q7YWB7 entry or part of it): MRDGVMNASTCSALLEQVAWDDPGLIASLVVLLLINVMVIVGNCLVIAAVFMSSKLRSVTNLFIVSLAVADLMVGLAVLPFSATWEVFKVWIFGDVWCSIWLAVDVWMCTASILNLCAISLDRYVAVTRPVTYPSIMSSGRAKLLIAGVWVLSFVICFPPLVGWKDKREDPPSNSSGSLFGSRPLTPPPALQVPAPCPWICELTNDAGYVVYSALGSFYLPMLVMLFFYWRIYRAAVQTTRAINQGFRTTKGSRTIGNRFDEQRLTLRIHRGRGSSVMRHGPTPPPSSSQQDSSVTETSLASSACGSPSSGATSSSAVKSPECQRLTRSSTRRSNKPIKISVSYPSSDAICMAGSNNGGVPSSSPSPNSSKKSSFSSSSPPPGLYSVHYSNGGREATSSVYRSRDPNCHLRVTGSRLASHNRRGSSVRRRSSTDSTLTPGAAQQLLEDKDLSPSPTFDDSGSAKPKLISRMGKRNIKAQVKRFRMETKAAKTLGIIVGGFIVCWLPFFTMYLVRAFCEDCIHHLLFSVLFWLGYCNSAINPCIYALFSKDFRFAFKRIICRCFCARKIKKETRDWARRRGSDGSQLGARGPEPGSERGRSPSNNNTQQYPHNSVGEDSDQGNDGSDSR

OAMB [3] = molecular target: T2, OAMB (Drosophila melanogaster, UniProt Q7JQF1, L268I/L487I/L521I/T180I); test: Saturation binding of 3H-yohimbine to membranes of COS-7 cells expressing OAMB; design: Oligonucleotides designed to amplify the open reading frame of Drosophila melanogaster OAMB; expressed in transfected cells
T2 sequence (Q7JQF1 other isoform, or with tags, fused parts or gaps T180I/L268I/L487I/L524I): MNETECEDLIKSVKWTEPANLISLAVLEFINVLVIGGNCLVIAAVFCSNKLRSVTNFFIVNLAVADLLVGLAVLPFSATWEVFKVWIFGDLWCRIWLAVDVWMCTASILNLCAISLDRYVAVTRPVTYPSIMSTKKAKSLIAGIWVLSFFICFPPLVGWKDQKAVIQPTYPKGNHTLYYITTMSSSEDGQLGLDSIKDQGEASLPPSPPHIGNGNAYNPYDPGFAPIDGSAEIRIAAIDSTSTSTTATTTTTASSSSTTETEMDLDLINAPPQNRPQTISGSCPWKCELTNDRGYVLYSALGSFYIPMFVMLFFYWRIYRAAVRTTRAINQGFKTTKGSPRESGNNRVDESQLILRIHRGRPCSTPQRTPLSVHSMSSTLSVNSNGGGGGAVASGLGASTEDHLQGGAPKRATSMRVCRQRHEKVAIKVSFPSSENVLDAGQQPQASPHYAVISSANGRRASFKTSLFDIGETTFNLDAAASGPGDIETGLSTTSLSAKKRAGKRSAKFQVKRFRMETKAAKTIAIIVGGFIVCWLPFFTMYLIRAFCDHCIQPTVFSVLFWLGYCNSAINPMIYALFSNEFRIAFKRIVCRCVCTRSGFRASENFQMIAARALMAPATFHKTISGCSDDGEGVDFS

Pa oa1 [4] = molecular target: T1, Pa oa1; test: Intracellular calcium (Fura-2) in HEK-293 cells expressing Pa oa1; type: cell-based
Pa oa1 [5] = molecular target: T1, Pa oa1; test: cAMP levels in HEK-293 cells expressing Pa oa1; type: cell-based
Experimental: (§1) Twenty-four hours before cell treatment, about 300,000 HEK-293 cells are plated in about 1 ml media with about 0.8 mg G418/ml into multi-well dishes (e.g., 12-well, 4.5 cm^2). For cell treatment, the media is aspirated and about 1 ml PBS with about 300 μM IBMX and the test reagent is added. […] Cells are incubated with about 70% ethanol for about 1 h at about −20° C. The cellular debris is centrifuged and then the supernatant is removed and lyophilized to dryness. The amount of cAMP in the extract is determined by using a cAMP binding protein from the ^3H-cAMP Biotrak assay system (Amersham Biosciences) as per the manufacturer's instructions. To test the effects of calcium chelation on cAMP levels, the cells are incubated with about […] BAPTA/AM (Calbiochem Biochemicals, La Jolla, Calif.) for about 10 min before the addition of the test reagents.
(§2) To determine cAMP levels in cells, about 24-hours before cell treatment, 300,000 HEK-293 cells are plated in 1 mL media with 0.8 mg G418/mL into multi-dishes (4.5 cm2). For cell treatment, the media is aspirated and 1 mL PBS with 300 μM IBMX and the test reagent is added. Cells are incubated at 37° C. for 20 min, and the PBS is then aspirated. Cells are incubated with 70% ethanol for 1 hour at −20° C. The cellular debris is centrifuged and then the supernatant is removed and lyophilized to dryness. The amount of cAMP in the extract is determined by using a cAMP binding protein from the ^3H-cAMP Biotrak assay system (Amersham Biosciences, Piscataway, N.J.) as per the manufacturer's instructions.

Pa oa1 [6] = molecular target: T1, Pa oa1; test: Competitive binding against 3H-yohimbine, Pa oa1 membranes; conditions: Ki, about 2 nM 3H-yohimbine
control HEK-293 cells [7] = test: Intracellular calcium in control HEK-293 cells transfected with empty pCDNA3; type: cell-based, human; conditions: about 10 μM
control HEK-293 cells [8] = test: cAMP levels in control HEK-293 cells transfected with pCDNA3 without insert; type: cell-based, human; conditions: up to about 100 μM
Experimental: as §1
To determine which second messenger signaling pathways octopamine could affect through the Pa oa1 receptor, HEK-293 cells are stably transfected with pCDNA3-Pa oa1 or pCDNA3 without an insert as a control.

OAMB [9] = molecular target: T2, OAMB; test: biochemical; type: binding; design: Oligonucleotides designed to amplify the open reading frame of Drosophila melanogaster OAMB; expressed in transfected cells
OAMB [10] = molecular target: T2, OAMB; test: Intracellular calcium (Fura-2) in HEK-293 cells expressing OAMB; conditions: 25 μM
Experimental: Cells are collected by scraping and are suspended at about 750,000 cells/ml in HBSS with about 5 μM Fura-2 AM (Sigma-Aldrich).

OAMB [11] = molecular target: T2, OAMB; test: cAMP levels in HEK-293 cells expressing OAMB; type: cell-based; design: Oligonucleotides designed to amplify the open reading frame of Drosophila melanogaster OAMB; expressed in transfected cells; conditions: 50 μM, 300 μM IBMX
Experimental: as §2

Pa oa1 [12] = molecular target: T1, Pa oa1; test: Specific binding of 3H-yohimbine to Pa oa1 membranes in presence of plant essential oil; conditions: for relative potency as inhibitor of 3H-yohimbine binding, Pa oa1 vs OAMB: 50 μM; for effect on specific binding of 3H-yohimbine: 50 μM test chemical, 4 nM 3H-yohimbine
Experimental: (§3) The binding activity of ^3H-yohimbine to membranes expressing Pa oa1 or OAMB is performed in the presence and absence of three structurally related plant essential oil monoterpenoids, which are selected based on their insecticidal activity, the absence or presence and location of the hydroxyl group and a spacing group within the molecule. Membrane protein (10 μg) expressing Pa oa1 is incubated with 4 nM ^3H-yohimbine in the presence and absence of 50 μM of the test chemical. The specific activity is calculated as the difference between counts in the presence and absence of test chemical. Specific binding is calculated by determining nonspecific binding with 50 μM tested plant essential oils and subtracting nonspecific binding from total binding.

American cockroach = test: Topical toxicity bioassay, American cockroach; type: in vivo, Periplaneta americana; conditions: for LD50, P. Americana: topical application, 24 hours
Experimental: Acetonic solutions of plant essential oils are prepared and different concentrations of each, that give from 10%-100% mortality, are applied by topical application. Controls are treated with the same volume (0.5 μl/insect) of acetone. Replicates, with 5 insects per replicate, are used for each concentration. The mortality is calculated 24 hours after treatment. Data are subjected to probit analysis to determine LD50 value for each compound.

OAMB [13] = molecular target: T2, OAMB; test: Specific binding of 3H-yohimbine to OAMB membranes in presence of plant essential oil; design: Oligonucleotides designed to amplify the open reading frame of Drosophila melanogaster OAMB; expressed in transfected cells; conditions: 50 μM test chemical, 4 nM 3H-yohimbine
Experimental: as §3

[14] = 3H-yohimbine 0.5 to 50 nM, 50 μM phentolamine for nonspecific binding

## CCC(=O)OCCc1ccccc1 [2-phenylethyl propionate]
[1]
  Wild/type LD50 values: 14.50 μg/fly
  % Mortality at LD50 of wild/type Drosophila melanogaster strain, Wild/type: 53.3%

## COC(=O)[C@@H]1[C@H]2C[C@H]3c4[nH]c5ccccc5c4CCN3C[C@@H]2CC[C@@H]1O [3H-yohimbine]
Pa oa1 [2]; [14]
  Kd: ~0.0284 µM and 0.0284 µM
Pa oa1 [2]; COS-7 membranes
  Bmax for specific binding: about 11.8 pmol/mg protein
Pa oa1 [2]; Pa oa1 vs OAMB
  affinity of Pa oa1 to the radioligand higher than OAMB: about 1.5 fold
Pa oa1 [2]; Table B
  Bmax: 11.80 pmole receptor/mg protein
OAMB [3]; [14]
  Kd: ~0.043 µM and 0.043 µM
OAMB [3]; COS-7 membranes
  Bmax: about 8.04 pmol/mg
OAMB [3]; Table B
  Bmax: 8.04 pmole receptor/mg protein

## CC(=O)OCOC(=O)CN(CC(=O)OCOC(C)=O)c1ccccc1OCCOc1ccccc1N(CC(=O)OCOC(C)=O)CC(=O)OCOC(C)=O [BAPTA/AM]
Pa oa1 [4]; about 20 μM BAPTA/AM
  effect on increase in free intracellular calcium by about 1 μM octopamine: inhibit the increase in free intracellular calcium
Pa oa1 [5]; about 20 μM BAPTA/AM, basal, about 100 nM or about 1 μM octopamine
  cAMP levels in absence vs presence of BAPTA/AM: not found to be statistically different

## CN(C)CCCN1c2ccccc2Sc2ccc(Cl)cc21 [Chlorpromazine]
Pa oa1 [6]
  Ki: 0.012 ± 0.003 µM

## NCCc1ccc(O)c(O)c1 [Dopamine]
Pa oa1 [6]
  Ki: 56.6 ± 8 µM

## CCN(CC)CCNC(=O)c1cc(Cl)c(N)cc1OC [Metoclopramine]
Pa oa1 [6]
  Ki: 4.76 ± 1.32 µM

## Cc1ccc(N(CC2=NCCN2)c2cccc(O)c2)cc1 [Phentolamine]
Pa oa1 [6]
  Ki: 0.023 ± 0.009 µM

## NCCc1c[nH]c2ccc(O)cc12 [Serotonin]
Pa oa1 [6]
  Ki: 77.4 ± 11.6 µM

## NCCc1ccc(O)cc1 [Tyramine, tyramine]
Pa oa1 [4]
  concentration that increases intracellular calcium: ≥ 1 µM
Pa oa1 [4]; about 100 nM
  effect on intracellular calcium: does not modulate intracellular calcium levels
Pa oa1 [4]; calcium and cAMP assays
  increase in tyramine concentration compared to about 10 nM octopamine required for similar response: about 100 fold
Control HEK-293 cells [7]
  effect on intracellular calcium levels: Neither about 10 μM octopamine nor about 10 μM tyramine modulates intracellular calcium levels
Control HEK-293 cells [8]
  effect on cAMP levels: neither DL-octopamine nor tyramine at concentrations up to about 100 μM has significant effects on cAMP levels
Pa oa1 [5]; 300 μM IBMX, read-out: EC50 for increase in cAMP
  EC50: ~97.7 µM
Pa oa1 [5]; HEK293, 20 min, about 100 μM amine, read-out: increase in cAMP
  fold induction at 100 µM: ~215
Pa oa1 [5]; about 10 nM amine, basal about 0.48 pmol cAMP
  cAMP concentration: about 0.50 pmol cAMP
Pa oa1 [5]; about 1 μM amine
  cAMP: about 1.2 pmol
Pa oa1 [6]
  Ki: ~31 µM and 31 µM
OAMB [9]
  Ki: ~33.8 µM

## OCC=Cc1ccccc1 [cinnamic alcohol, 3-phenyl-2-propen-1-ol]
OAMB [10]
  changes in [Ca2+]i level: increase [Ca^2+]i through Pa oa1 and OAMB
  rank of potency based on increased [Ca2+]i level: the most potent agent tested in this example
  speed of increase in [Ca2+]i: slower than the other two chemicals
Pa oa1 [4]; 25 μM
  changes in [Ca2+]i level: increase [Ca^2+]i through Pa oa1 and OAMB
OAMB [11]
  effect on basal cAMP level: slight increase in cAMP level
Pa oa1 [5]; 50 μM, 300 μM IBMX
  effect on basal cAMP level: slight increase in cAMP level
Pa oa1 [12]
  relative potency as inhibitor of 3H-yohimbine binding, Pa oa1 vs OAMB: more potent against OAMB than Pa oa1
  effect on specific binding of 3H-yohimbine: decrease the binding of ^3H-yohimbine
American cockroach
  LD50, P. Americana: 98 μg/insect
[1]
  LD50, D. melanogaster: 1.65 μg/insect
  Wild/type LD50 values: 1.65 μg/fly
  % Mortality at LD50 of wild/type Drosophila melanogaster strain, Wild/type: 30.0%
OAMB [13]
  effect on specific binding of 3H-yohimbine: decrease the binding of ^3H-yohimbine

## C=CCc1ccc(O)c(OC)c1 [eugenol, 2-methoxy-4-(2-propenyl)phenol]
OAMB [10]
  changes in [Ca2+]i level: increase [Ca^2+]i through Pa oa1 and OAMB
Pa oa1 [4]; 25 μM
  changes in [Ca2+]i level: increase [Ca^2+]i through Pa oa1 and OAMB
  rank of potency based on increased [Ca2+]i level: the most potent agent tested in this example
OAMB [11]
  effect on basal cAMP level: slightly decreased cAMP level
Pa oa1 [5]; HEK293, 20 min, 50 μM, 300 μM IBMX, basal cAMP, read-out: decrease in cAMP level
  inhibition at 50 µM: 24%
Pa oa1 [12]
  relative potency as inhibitor of 3H-yohimbine binding, Pa oa1 vs OAMB: more potent inhibitors against Pa oa1 than OAMB
  effect on specific binding of 3H-yohimbine: decrease the binding of ^3H-yohimbine
American cockroach; in vivo
  more toxic against American cockroach than cinnamic alcohol: about 2 fold
  more toxic against American cockroach than trans-anethole: about 27 fold
American cockroach
  LD50, P. Americana: 47 μg/insect
[1]; in vivo
  more toxic against wild type flies than trans-anethole: 3 fold
[1]
  LD50, D. melanogaster: 1.90 μg/insect
  Wild/type LD50 values: 1.90 μg/fly
  % Mortality at LD50 of wild/type Drosophila melanogaster strain, Wild/type: 53.3%
OAMB [13]
  effect on specific binding of 3H-yohimbine: decrease the binding of ^3H-yohimbine

## CC(C)=CCCC(C)=CCO [geraniol, 3,7-dimethyl-2,6-octadien-1-ol]
[1]
  Wild/type LD50 values: 10.50 μg/fly
  % Mortality at LD50 of wild/type Drosophila melanogaster strain, Wild/type: 60.0%

## COC(=O)c1ccccc1O [methyl salicylate, 2-hydroxybenzoic acid methyl ester]
[1]
  Wild/type LD50 values: 7.50 μg/fly
  % Mortality at LD50 of wild/type Drosophila melanogaster strain, Wild/type: 40.0%

## Cc1ccc(C(C)C)cc1 [p-cymene, methyl(1-methylethyl)benzene]
[1]
  Wild/type LD50 values: 25.00 μg/fly
  % Mortality at LD50 of wild/type Drosophila melanogaster strain, Wild/type: 40.0%

## CC=Cc1ccc(OC)cc1 [trans-anethole, 1-methoxy-4-(1-propenyl)benzene]
OAMB [10]
  changes in [Ca2+]i level: increases
Pa oa1 [4]; 25 μM
  speed of increase in [Ca2+]i: slower than eugenol and cinnamic alcohol
OAMB [11]; basal cAMP
  increase in cAMP level: 22%
Pa oa1 [12]
  effect on specific binding of 3H-yohimbine: decreases the ^3H-yohimbine binding activity to only Pa oa1
OAMB [13]
  effect on specific binding of 3H-yohimbine: does not have a significant effect on binding to OAMB
